Results reported in ChEMBL document CHEMBL1275575, “Susceptibility of Mycobacterium bovis BCG vaccine strains to antituberculous antibiotics” (Antimicrob Agents Chemother, 2009).
In brackets after ≈: the same amount, converted by molar mass.

Experiments:
Assay type in all cases: functional
[1] = system: Mycobacterium tuberculosis variant bovis; test: Antibacterial activity against Mycobacterium bovis BCG-Connaught by Wayne's indirect method
[2] = system: Mycobacterium tuberculosis variant bovis; test: Antibacterial activity against Mycobacterium bovis BCG-Connaught
[3] = system: Mycobacterium tuberculosis variant bovis; test: Antibacterial activity against Mycobacterium bovis BCG-Denmark
[4] = system: Mycobacterium tuberculosis variant bovis; test: Antibacterial activity against Mycobacterium bovis BCG-japan
[5] = system: Mycobacterium tuberculosis variant bovis; test: Antibacterial activity against Mycobacterium bovis BCG-Pasteur
[6] = system: Mycobacterium tuberculosis variant bovis; test: Antibacterial activity against Mycobacterium bovis BCG-Glaxo
[7] = system: Mycobacterium tuberculosis variant bovis; test: Antibacterial activity against Mycobacterium bovis BCG-Russia
[8] = system: Mycobacterium tuberculosis variant bovis; test: Antibacterial activity against Mycobacterium bovis BCG-Moreau

SMILES	MIC [1] [µg/mL]	MIC [2] [µg/mL]	MIC [3] [µg/mL]	MIC [4] [µg/mL]	MIC [5] [µg/mL]	MIC [6] [µg/mL]	MIC [7] [µg/mL]	MIC [8] [µg/mL]
NC(=O)c1cnccn1 [PYRAZINAMIDE]	> 800	–	–	–	–	–	–	–
CO[C@H]1/C=C/O[C@@]2(C)Oc3c(C)c(O)c4c(O)c(c(/C=N/N5CCN(C)CC5)c(O)c4c3C2=O)NC(=O)/C(C)=C\C=C\[C@H](C)[C@H](O)[C@@H](C)[C@@H](O)[C@@H](C)[C@H](OC(C)=O)[C@@H]1C [RIFAMPIN]	–	< 0.031	0.016 (≈ 0.0194 µM)	0.063 (≈ 0.0766 µM)	0.063 (≈ 0.0766 µM)	0.031 (≈ 0.0377 µM)	–	–
CCc1cc(C(N)=S)ccn1 [ETHIONAMIDE]	–	4 (≈ 24.1 µM)	–	–	–	–	–	–
CC1COc2c(N3CCN(C)CC3)c(F)cc3c(=O)c(C(=O)O)cn1c23 (stereo unspecified) [OFLOXACIN]	–	< 0.031	0.75 (≈ 2.08 µM)	–	0.75 (≈ 2.08 µM)	–	1 (≈ 2.77 µM)	–
NNC(=O)c1ccncc1 [ISONIAZID]	–	0.125 (≈ 0.911 µM)	0.4 (≈ 2.92 µM)	0.06 (≈ 0.438 µM)	0.1 (≈ 0.729 µM)	–	–	–
CC[C@H]1OC(=O)[C@H](C)[C@@H](O[C@H]2C[C@@](C)(OC)[C@@H](O)[C@H](C)O2)[C@H](C)[C@@H](O[C@@H]2O[C@H](C)C[C@H](N(C)C)[C@H]2O)[C@](C)(O)C[C@@H](C)C(=O)[C@H](C)[C@@H](O)[C@]1(C)O [ERYTHROMYCIN]	–	16 (≈ 21.8 µM)	–	–	4 (≈ 5.45 µM)	–	–	128 (≈ 174 µM)
NCC[C@H](O)C(=O)N[C@@H]1C[C@H](N)[C@@H](O[C@H]2O[C@H](CN)[C@@H](O)[C@H](O)[C@H]2O)[C@H](O)[C@H]1O[C@H]1O[C@H](CO)[C@@H](O)[C@H](N)[C@H]1O [AMIKACIN]	–	0.125 (≈ 0.213 µM)	–	–	–	–	–	–
NC[C@H]1O[C@H](O[C@H]2[C@H](O)[C@@H](O[C@H]3O[C@H](CO)[C@@H](O)[C@H](N)[C@H]3O)[C@H](N)C[C@@H]2N)[C@H](O)[C@@H](O)[C@@H]1O [KANAMYCIN]	–	1 (≈ 2.06 µM)	–	–	–	–	–	–
CC[C@H]1OC(=O)[C@H](C)[C@@H](O[C@H]2C[C@@](C)(OC)[C@@H](O)[C@H](C)O2)[C@H](C)[C@@H](O[C@@H]2O[C@H](C)C[C@H](N(C)C)[C@H]2O)[C@](C)(O)C[C@@H](C)CN(C)[C@H](C)[C@@H](O)[C@]1(C)O [AZITHROMYCIN]	–	16 (≈ 21.4 µM)	–	–	1 (≈ 1.34 µM)	–	–	–
CC[C@H]1OC(=O)[C@H](C)[C@@H](O[C@H]2C[C@@](C)(OC)[C@@H](O)[C@H](C)O2)[C@H](C)[C@@H](O[C@@H]2O[C@H](C)C[C@H](N(C)C)[C@H]2O)[C@](C)(OC)C[C@@H](C)C(=O)[C@H](C)[C@@H](O)[C@]1(C)O [CLARITHROMYCIN]	–	0.25 (≈ 0.334 µM)	0.07 (≈ 0.0936 µM)	–	0.3 (≈ 0.401 µM)	0.15 (≈ 0.201 µM)	–	2 (≈ 2.67 µM)
CC[C@@H](CO)NCCN[C@@H](CC)CO [ETHAMBUTOL]	–	2 (≈ 9.79 µM)	2.5 (≈ 12.2 µM)	2 (≈ 9.79 µM)	–	2.5 (≈ 12.2 µM)	–	–
CO[C@H]1/C=C/O[C@@]2(C)Oc3c(C)c(O)c4c(c3C2=O)C2=NC3(CCN(CC(C)C)CC3)NC2=C(NC(=O)/C(C)=C\C=C\[C@H](C)[C@H](O)[C@@H](C)[C@@H](O)[C@@H](C)[C@H](OC(C)=O)[C@@H]1C)C4=O [RIFABUTIN]	–	0.063 (≈ 0.0744 µM)	0.016 (≈ 0.0189 µM)	0.063 (≈ 0.0744 µM)	0.063 (≈ 0.0744 µM)	0.016 (≈ 0.0189 µM)	–	–
CN[C@@H]1[C@H](O[C@H]2[C@H](O[C@H]3[C@H](O)[C@@H](O)[C@H](N=C(N)N)[C@@H](O)[C@@H]3N=C(N)N)O[C@@H](C)[C@]2(O)C=O)O[C@@H](CO)[C@H](O)[C@H]1O [STREPTOMYCIN]	–	0.25 (≈ 0.43 µM)	2 (≈ 3.44 µM)	0.25 (≈ 0.43 µM)	–	2 (≈ 3.44 µM)	–	–
O=C(O)c1cn(C2CC2)c2cc(N3CCNCC3)c(F)cc2c1=O [CIPROFLOXACIN]	–	0.125 (≈ 0.377 µM)	–	–	–	–	–	–
